In assay [1] the target is T1, orexin-1 receptor (OX1R) (UniProt O43613).
T1 sequence (O43613 1-425): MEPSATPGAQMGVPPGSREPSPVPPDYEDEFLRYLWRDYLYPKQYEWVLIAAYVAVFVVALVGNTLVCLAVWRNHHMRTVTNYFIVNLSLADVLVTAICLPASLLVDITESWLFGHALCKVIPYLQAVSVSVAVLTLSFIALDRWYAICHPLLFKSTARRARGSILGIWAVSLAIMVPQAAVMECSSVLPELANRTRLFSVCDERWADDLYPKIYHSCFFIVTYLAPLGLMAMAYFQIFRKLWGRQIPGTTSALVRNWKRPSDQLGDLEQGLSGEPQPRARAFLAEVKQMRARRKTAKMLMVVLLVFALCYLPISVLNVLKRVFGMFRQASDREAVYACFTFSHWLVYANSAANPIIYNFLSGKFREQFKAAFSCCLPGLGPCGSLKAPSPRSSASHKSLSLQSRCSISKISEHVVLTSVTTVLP
Briefly: Radioligand binding assay, OX1R. The following applies: membranes prepared from CHO cells expressing the orexin-1 (OX1) receptor.

For assay [2], the target named is T2, orexin-2 receptor (OX2R) (Homo sapiens, UniProt O43614).
T2 construct: expressed in transfected cells; host or cells: CHO cells (membranes)
T2 sequence (O43614 1-444): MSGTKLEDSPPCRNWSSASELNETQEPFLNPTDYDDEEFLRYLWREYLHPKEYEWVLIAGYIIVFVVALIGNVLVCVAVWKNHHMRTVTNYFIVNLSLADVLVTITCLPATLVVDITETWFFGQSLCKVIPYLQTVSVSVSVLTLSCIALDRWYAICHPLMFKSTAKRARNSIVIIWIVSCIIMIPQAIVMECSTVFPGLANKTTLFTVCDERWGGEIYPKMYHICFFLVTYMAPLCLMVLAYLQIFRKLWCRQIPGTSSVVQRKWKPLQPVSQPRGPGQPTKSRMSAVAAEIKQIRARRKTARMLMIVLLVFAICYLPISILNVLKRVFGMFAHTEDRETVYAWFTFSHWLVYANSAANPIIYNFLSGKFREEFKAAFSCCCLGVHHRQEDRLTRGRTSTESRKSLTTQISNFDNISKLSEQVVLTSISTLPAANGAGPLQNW
Briefly: Radioligand binding assay, OX2R. Conditions: membranes prepared from CHO cells expressing the orexin-2 (OX2) receptor.

In the case of `Cc1ccc(-n2nccn2)c(C(=O)N2C[C@H](COc3ccnc4ccccc34)OC[C@H]2C)c1` [A-12, 4-({(2R,5R)-5-methyl-4-[5-methyl-2-(2H-1,2,3-triazol-2-yl)benzoyl]morpholin-2-yl}methoxy)quinoline], the inhibition constant (Ki) came to 17 nM in assay [1] and 39 nM in assay [2].
The matching figures for `Cc1ccc(-n2nccn2)c(C(=O)N2C[C@H](COc3ccc(Br)cn3)OC[C@H]2C)c1` [A-10]: 21 nM and 1.3 nM.
Consider `Cc1ccc(-n2nccn2)c(C(=O)N2C[C@H](COc3nccc4ccccc34)OC[C@H]2C)c1` [A-9, 1-({(2R,5R)-5-methyl-4-[5-methyl-2-(2H-1,2,3-triazol-2-yl)benzoyl]morpholin-2-yl}methoxy)isoquinoline], for which, in assay [1], the affinity, expressed as Ki, was 23 nM.
For `Cc1ccc(-n2nccn2)c(C(=O)N2C[C@H](COc3ncccc3C)OC[C@H]2C)c1` [A-13, (2R,5R)-5-methyl-2-{[(3-methylpyridin-2-yl)oxy]methyl}-4-[5-methyl-2-(2H-1,2,3-triazol-2-yl)benzoyl]morpholine], the results for the Ki in assay [1] and in assay [2] were 720 nM and 8.3 nM, respectively.
`Cc1ccc(-n2nccn2)c(C(=O)N2C[C@H](COc3nccc4ccccc34)OC[C@H]2C)c1` [A-11, 1-({(2R,5R)-5-methyl-4-[5-methyl-2-(2H-1,2,3-triazol-2-yl)benzoyl]morpholin-2-yl}methoxy)isoquinoline] registered an inhibitory constant (Ki) in assay [1] of 2.2 nM.

These data come from patent US8466281B2, “2,5-disubstituted morpholine orexin receptor antagonists” (Merck Sharp & Dohme Corp., priority 2008, dated 2013).
